Measured values taken from patent US11465993B2, “Water soluble novel cyanine fluorophore with tunable properties between near IR and SWIR region for in vivo imaging” (The USA, as represented by the Secretary, Department of …, priority 2018, dated 2022).

Experiments:
[1] = Emission (fluorescence) spectra of cyanine fluorophores in different solvents
[2] = Absorbance spectra of cyanine fluorophores in different solvents (absorbance maximum, molar absorptivity)
[3] = Solubility and aggregation in PBS, serum or organic solvent; conditions: for aggregation: PBS and serum; for solubility: medium as stated in the value
[4] = pH 7.4 PBS, excitation wavelength per compound (figure legends)
[5] = pH 7.4 PBS, at wavelength of maximum absorbance

Structure (SMILES) | emission maximum (λmax, emiss) ([1]; 10% (v/v) FBS in pH 7.4 PBS) | emission maximum (λmax, emiss) ([1]; methanol) | emission maximum (λmax, emiss) [1, 4] | absorbance maximum (λmax, abs) ([2]; 10% (v/v) FBS in pH 7.4 PBS) | molar absorptivity (ε) ([2]; 10% (v/v) FBS in pH 7.4 PBS) | absorbance maximum (λmax, abs) ([2]; methanol) | molar absorptivity (ε) ([2]; methanol) | absorbance maximum (λmax, abs) ([2]; pH 7.4 PBS) | aggregation [3] | molar absorptivity (ε) [2, 5] | solubility [3] | emission maximum (λmax, emiss) ([1]; acetonitrile) | absorbance maximum (λmax, abs) ([2]; acetonitrile) | emission maximum (λmax, emiss) ([1]; 0.1% formic acid in acetonitrile, excitation at 800 nm) | absorbance maximum (λmax, abs) ([2]; 0.1% formic acid in acetonitrile) | emission maximum (λmax, emiss) ([1]; dichloromethane) | absorbance maximum (λmax, abs) ([2]; dichloromethane) | molar absorptivity (ε) ([2]; dichloromethane)
CC1(C)C(/C=C/C2=C3Oc4ccccc4OC4=C3C(CC2)CC/C4=C\C=C2\N(CCCCS(=O)(=O)[O-])c3ccccc3C2(C)C)=[N+](CCCCS(=O)(=O)[O-])c2ccccc21.[Na+] (centres unmarked) [BisSO3-NIR-890] | 900 nm | 890 nm | 890 nm | 877 nm | 187,000 M^−1cm^−1 | 860 nm | 275,000 M^−1cm^−1 | 689 nm |  |  |  |  |  |  |  |  |  | 
CC1(C)C(/C=C/C2=C3Oc4ccc(C(=O)O)cc4OC4=C3C(CC2)CC/C4=C\C=C2\N(CCCCS(=O)(=O)[O-])c3ccc(S(=O)(=O)[O-])cc3C2(C)C)=[N+](CCCCS(=O)(=O)[O-])c2ccc(S(=O)(=O)[O-])cc21.[Na+].[Na+].[Na+] (centres unmarked) [Compound 6] | 896 nm | 896 nm | 896 nm | 868 nm | 192,000 M^−1cm^−1 | 866 nm | 208,000 M^−1cm^−1 | 860 nm | only moderate aggregation | 191,000 M^−1cm^−1 |  |  |  |  |  |  |  | 
CC1(C)C(/C=C/C2=C3C4=C(/C(=C/C=C5/N(CCCCS(=O)(=O)O)c6ccc(S(=O)(=O)[O-])cc6C5(C)C)CCC4CC2)c2cc(C(=O)O)ccc23)=[N+](CCCCS(=O)(=O)O)c2ccc(S(=O)(=O)O)cc21.N.N.N (centres unmarked) [Compound 8] | 1086 nm | 1103 nm | 1084 nm | 1062 nm | 99,000 M^−1cm^−1 | 1072 nm | 117,000 M^−1cm^−1 | 1058 nm |  | 70,000 M^−1cm^−1 | water-soluble |  |  |  |  |  |  | 
CC1(C)C(/C=C/C2=C3Oc4ccc(C(=O)N(CCCS(=O)(=O)O)CCC(=O)O)cc4OC4=C3C(CC2)CC/C4=C\C=C2\N(CCCCS(=O)(=O)O)c3ccc(S(=O)(=O)[O-])cc3C2(C)C)=[N+](CCCCS(=O)(=O)O)c2ccc(S(=O)(=O)O)cc21.N.N.N.N (centres unmarked) [Compound 10] | 900 nm | 896 nm | 896 nm | 871 nm | 137,000 M^−1cm^−1 | 869 nm | 187,000 M^−1cm^−1 | 862 nm | eliminated aggregation in both PBS and serum | 145,000 M^−1cm^−1 |  |  |  |  |  |  |  | 
CN1/C(=C/C=C2\CCC3CCC(C=O)=C4C3=C2c2ccccc24)C(C)(C)c2ccccc21 (centres unmarked) [Compound 23] |  |  |  |  |  |  |  |  |  |  |  | 780 nm | 600 nm |  |  |  |  | 
CN1/C(=C/C=C2\CCC3CCC(/C=C/C4=[N+](C)c5ccccc5C4(C)C)=C4C3=C2c2ccccc24)C(C)(C)c2ccccc21 (centres unmarked) [Compound 25] |  | 1110 nm |  |  |  | 1066 nm |  |  |  |  |  |  |  |  |  |  |  | 
CCCC/N=C/C1=C2C3=C(/C(=C/C=C4/N(C)c5ccccc5C4(C)C)CCC3CC1)c1ccccc12 (centres unmarked) [Compound 26] |  |  |  |  |  |  |  |  |  |  |  | 720 nm | 540 nm | 906 nm | 872 nm |  |  | 
CN1/C(=C/C=C2\CCC3CCC(/C=C/C4=[N+](C)c5ccccc5C4(C)C)=C(Cl)C3=C2Cl)C(C)(C)c2ccccc21 (centres unmarked) [N-methyl-NIR-990] |  | 960 nm |  |  |  | 922 nm | 46,886 M^−1cm^−1 |  |  |  | organic soluble |  |  |  |  | 990 nm | 940 nm | 134,658 M^−1cm^−1
CC1(C)C(/C=C/C2=C3Oc4ccc(CCC(=O)O)cc4OC4=C3C(CC2)CC/C4=C\C=C2\N(CCCCS(=O)(=O)[O-])c3ccc(S(=O)(=O)[O-])cc3C2(C)C)=[N+](CCCCS(=O)(=O)[O-])c2ccc(S(=O)(=O)[O-])cc21.[Na+].[Na+].[Na+] (centres unmarked) [NIR-900-Et] | 900 nm | 890 nm | 900 nm | 864 nm | 148,000 M^−1cm^−1 | 860 nm | 253,000 M^−1cm^−1 | 856 nm |  | 172,000 M^−1cm^−1 |  |  |  |  |  |  |  | 
CC1(C)C(/C=C/C2=C3Sc4ccccc4SC4=C3C(CC2)CC/C4=C\C=C2\N(CCCCS(=O)(=O)[O-])c3ccc(S(=O)(=O)[O-])cc3C2(C)C)=[N+](CCCCS(=O)(=O)[O-])c2ccc(S(=O)(=O)[O-])cc21.[Na+].[Na+].[Na+] (centres unmarked) [NIR-950] | 955 nm | 960 nm | 950 nm | 902 nm | 128,000 M^−1cm^−1 | 890 nm | 193,000 M^−1cm^−1 | 880 nm |  | 79,000 M^−1cm^−1 |  |  |  |  |  |  |  | 
